# From patent US6482802B1 (Endowment for Research in Human Biology, Inc., priority 1998, dated 2002)
# Several values for one entry are separate records, joined by “and”; a condition that tells them apart may be missing. Identical values can stand only once. Entries after “also recorded” stand apart in the source; their conditions may differ.
# Legend:
# HUVE cells [1] = assay: bFGF-induced proliferation of HUVE cells, aminoglycoside antibiotics; format: cell-based, human; conditions: aminoglycoside 100 μM; for % Inhibition of bFGF-induced cell proliferation / bFGF (10 ng/ml) Cell Numbers: bFGF 10 ng/ml; for bFGF (10 ng/ml) Cell Numbers / Control (cell number without bFGF): 48 hr; for bFGF (10 ng/ml) Cell Numbers: control 99000 ± 1000; for Control (cell number without bFGF): no bFGF, control 61300 ± 500
# Procedure: (§1) HUVE cells were seeded at 4×10^3 cells/cm^2 in attachment factor (Cell Systems Corp.)-coated 35 mm dishes in HE-SFM, and incubated with 1 μg/ml angiogenin in the presence or absence of inhibitors at 37° C. for 48 hr. Cell were detached by trypsinization and cell numbers were determined with a Coulter counter.
# The ability of the other members of the aminoglycoside antibiotic family to inhibit bFGF-induced proliferation of HUVE cells was examined in a similar manner as for angiogenin as described in Section 6.1.1.5, above. HUVE cells, passage 9, were seeded on attachment-factor coated dishes at 50,000 cells per 35 mm dish in HE-SFM. Aminoglycoside antibiotics were added and the cells were incubated with or without […] at 37° C. for 48 hr.
# [2] = system: chorioallantoic membrane (CAM) of chick embryos; assay: CAM assay, angiogenin-induced angiogenesis; format: in vivo; conditions: for inhibition of angiogenin-induced angiogenesis in CAM assay: in vivo
# Procedure: (§2) Angiogenesis was measured on the CAM by the method of Knighton et al. (Knighton et al., 1977, Br. J. Cancer 35:347-356) essentially as described (Fett et al., 1985, Biochemistry 24:5480-5486). Fertilized chicken eggs were kept at 18° C. for 2 days and then incubated in a humidified environment at 37° C. for 3 days. Albumin was aspirated from the embryos and after 24 hours, a “window” was cut through the shell and covered with clear tape. […] After 48-68 hours at 37° C., the growth of blood vessels was observed microscopically and recorded as either positive or negative. A positive response (i.e., an angiogenic response) has a typical “spokewheel” appearance.
# HUVE cells [3] = assay: Angiogenin-induced proliferation of HUVE cells; format: cell-based, human; conditions: for inhibition of angiogenin-induced cell proliferation: aminoglycoside 100 μM (Table 3); for Cell number / percent of cell number in the presence of 1 μg/ml angiogenin relative to the corresponding control: aminoglycoside 100 μM; for percent of cell number in the presence of 1 μg/ml angiogenin relative to the corresponding control: none: 120
# Procedure: as §1
# HUVE cells [4] = assay: Cytotoxicity against HUVE cells; format: cell-based, human; conditions: concentration not given
# Procedure: Human umbilical vein endothelial (HUVE) cells were purchased from Cell Systems Corp. (Kirkland, Wash.). […] Cells between passages 5 and 12 inclusive were used for all experiments. Cell numbers were determined with a Coulter counter, and cell viability was measured by trypan blue dye exclusion assay.
# [5] = system: nuclear translocation of 125I-angiogenin in HUVE cells; assay: Nuclear translocation of 125I-angiogenin in HUVE cells; conditions: for effect on nuclear translocation of 125I-angiogenin: HUVE cells, concentrations as in Table 1; for Nuclear 125I-angiogenin: 37° C. 30 min, control 3090 ± 260; for Nuclear 125I-angiogenin / % inhibition of nuclear translocation of angiogenin: 125I-angiogenin 1 μg/ml 30 min
# [6] = system: chorioallantoic membrane (CAM) of chick embryos; assay: CAM assay, EGF-induced angiogenesis; format: in vivo; conditions: EGF 10 ng alone
# Procedure: as §2
# [7] = system: chorioallantoic membrane (CAM) of chick embryos; assay: CAM assay, VEGF-induced angiogenesis; format: in vivo; conditions: VEGF 10 ng alone
# Procedure: as §2
# [8] = system: chorioallantoic membrane (CAM) of chick embryos; assay: CAM assay, aFGF-induced angiogenesis; format: in vivo; conditions: aFGF 10 ng alone
# Procedure: as §2
# [9] = system: chorioallantoic membrane (CAM) of chick embryos; assay: CAM assay, bFGF-induced angiogenesis; format: in vivo; conditions: bFGF 10 ng alone
# Procedure: as §2
# [10] = with angiogenin 1 μg/ml, none: 62,500 ± 100
# [11] = without angiogenin, none: 52,000 ± 100
compound,measurement,setting,value
"NCC[C@H](O)C(=O)N[C@@H]1C[C@H](N)[C@@H](O[C@H]2O[C@H](CN)[C@@H](O)[C@H](O)[C@H]2O)[C@H](O)[C@H]1O[C@H]1O[C@H](CO)[C@@H](O)[C@H](N)[C@H]1O [Amikacin, amikacin]",significant inhibitory effect on cell proliferation induced by bFGF,HUVE cells [1],no
same,% Inhibition of bFGF-induced cell proliferation,HUVE cells [1],11%
same,bFGF (10 ng/ml) Cell Numbers,HUVE cells [1],97600 ± 1300
same,Control (cell number without bFGF),HUVE cells [1],63000 ± 900
same,inhibition of angiogenin-induced angiogenesis in CAM assay,[2],do not inhibit angiogenin-induced angiogenesis
same,inhibition of angiogenin-induced cell proliferation,HUVE cells [3],None
same,Cell number,HUVE cells [3]; [10],"61,000 ± 400"
same,Cell number,HUVE cells [3]; [11],"51,700 ± 200"
same,percent of cell number in the presence of 1 μg/ml angiogenin relative to the corresponding control,HUVE cells [3],118%
same,cytotoxicity against HUVE cells,HUVE cells [4],no cytotoxicity
"O=c1c(-c2ccc(O)cc2)coc2cc(O)cc(O)c12 [Genistein, genistein]",effect on nuclear translocation of 125I-angiogenin,[5],no effect; also recorded: do not inhibit nuclear translocation of angiogenin
same,inhibition at 100 µM,"[5]; Homo sapiens, 0.5 h, read-out: % inhibition of nuclear translocation of angiogenin",0%
same,Nuclear 125I-angiogenin,[5]; inhibitor 100 μM,3300 ± 170 cpm
"NC[C@H]1O[C@H](O[C@H]2[C@H](O)[C@@H](O[C@H]3O[C@H](CO)[C@@H](O)[C@H](N)[C@H]3O)[C@H](N)C[C@@H]2N)[C@H](O)[C@@H](O)[C@@H]1O [Kanamycin, kanamycin]",% Inhibition of bFGF-induced cell proliferation,HUVE cells [1],8%
same,bFGF (10 ng/ml) Cell Numbers,HUVE cells [1],98000 ± 2500
same,Control (cell number without bFGF),HUVE cells [1],62600 ± 1100
same,Cell number,HUVE cells [3]; [10],"58,900 ± 200"
same,Cell number,HUVE cells [3]; [11],"48,800 ± 400"
same,percent of cell number in the presence of 1 μg/ml angiogenin relative to the corresponding control,HUVE cells [3],121%
same,cytotoxicity against HUVE cells,HUVE cells [4],no cytotoxicity
"NC[C@@H]1O[C@H](O[C@H]2[C@@H](O)[C@H](O[C@@H]3[C@@H](O)[C@H](N)C[C@H](N)[C@H]3O[C@H]3O[C@H](CO)[C@@H](O)[C@H](O)[C@H]3N)O[C@@H]2CO)[C@H](N)[C@@H](O)[C@@H]1O [Paromomycin, paromomycin]",inhibition of angiogenin-induced cell proliferation,HUVE cells [3],did not inhibit angiogenin-induced cell proliferation; also recorded: no inhibitory activity at all
same,Cell number,HUVE cells [3]; [10],"58,900 ± 400"
same,Cell number,HUVE cells [3]; [11],"50,900 ± 500"
same,percent of cell number in the presence of 1 μg/ml angiogenin relative to the corresponding control,HUVE cells [3],116%
same,cytotoxicity against HUVE cells,HUVE cells [4],no cytotoxicity
"CN[C@@H]1C[C@H]2O[C@@](C)([C@@H]1OC)n1c3ccccc3c3c4c(c5c6ccccc6n2c5c31)C(=O)NC4 [Staurosporine, staurosporine]",effect on nuclear translocation of 125I-angiogenin,[5],only marginally inhibitory; also recorded: do not inhibit nuclear translocation of angiogenin
same,Nuclear 125I-angiogenin,[5]; inhibitor 100 nM,2710 ± 70 cpm
"[H]/N=C(/N)N[C@H]1[C@H](O)[C@@H](O)[C@H](O[C@@H]2O[C@@H](C)[C@](O)(C=O)[C@H]2O[C@@H]2O[C@@H](CO)[C@H](O)[C@@H](O)[C@@H]2NC)[C@@H](N/C(N)=N\[H])[C@@H]1O [Streptomycin, streptomycin]",significant inhibitory effect on cell proliferation induced by bFGF,HUVE cells [1],no
same,% Inhibition of bFGF-induced cell proliferation,HUVE cells [1],0%
same,bFGF (10 ng/ml) Cell Numbers,HUVE cells [1],104200 ± 400
same,Control (cell number without bFGF),HUVE cells [1],62300 ± 600
same,inhibition of angiogenin-induced angiogenesis in CAM assay,[2],do not inhibit angiogenin-induced angiogenesis
same,inhibition of angiogenin-induced cell proliferation,HUVE cells [3],None
same,Cell number,HUVE cells [3]; [10],"59,900 ± 900"
same,Cell number,HUVE cells [3]; [11],"51,900 ± 1,300"
same,percent of cell number in the presence of 1 μg/ml angiogenin relative to the corresponding control,HUVE cells [3],115%
same,cytotoxicity against HUVE cells,HUVE cells [4],no cytotoxicity
COc1ccc2c(c1)CC[C@@H]1[C@@H]2CC[C@]2(C)[C@@H](NCCCCCCN3C(=O)C=CC3=O)CC[C@@H]12 [U-73122],Nuclear 125I-angiogenin,[5]; inhibitor 10 μM,2140 ± 30 cpm
same,% inhibition of nuclear translocation of angiogenin,"[5]; inhibitor 10 μM, 10 µM",30% and 31%
COc1ccc2c(c1)CC[C@@H]1[C@@H]2CC[C@]2(C)[C@@H](NCCCCCCN3C(=O)CCC3=O)CC[C@@H]12 [U-73343],effect on nuclear translocation of 125I-angiogenin,[5],no effect
same,Nuclear 125I-angiogenin,[5]; inhibitor 10 μM,2890 ± 100 cpm
same,% inhibition of nuclear translocation of angiogenin,[5]; inhibitor 10 μM,6%
"Angiogenin: Human angiogenin (Met-1), recombinant product from an Escherichia coli expression system",% Positive (angiogenic response),"[2]; angiogenin 10 ng alone, water 20",55%
same,increase of cell number after 48 hr,"HUVE cells [3]; angiogenin 1 μg/ml, no neomycin",35%
EGF: epidermal growth factor,Positive eggs,[6]; 26 total eggs,18
same,% Positive,[6]; water 21,69%
VEGF,Positive eggs,[7]; 27 total eggs,17
same,% Positive,[7]; water 21,63%
aFGF: acidic fibroblast growth factor,Positive eggs,[8]; 49 total eggs,36
same,% Positive,[8]; water 21,73%
bFGF: basic fibroblast growth factor,Positive eggs,[9]; 37 total eggs,29
same,% Positive,[9]; water 21,78%
gentamicin,significant inhibitory effect on cell proliferation induced by bFGF,HUVE cells [1],no
same,% Inhibition of bFGF-induced cell proliferation,HUVE cells [1],5%
same,bFGF (10 ng/ml) Cell Numbers,HUVE cells [1],98400 ± 1900
same,Control (cell number without bFGF),HUVE cells [1],61800 ± 1200
same,inhibition of angiogenin-induced cell proliferation,HUVE cells [3],None
same,Cell number,HUVE cells [3]; [10],"55,700 ± 900"
same,Cell number,HUVE cells [3]; [11],"45,700 ± 500"
same,percent of cell number in the presence of 1 μg/ml angiogenin relative to the corresponding control,HUVE cells [3],121%
same,cytotoxicity against HUVE cells,HUVE cells [4],no cytotoxicity
